{
  "source": "patent US10358434B2",
  "about": "“2-(3-pyridinyl)-1H-benzimidazole derivative compound and medicament containing same” (NIHON MEDI-PHYSICS CO., LTD., priority 2014, dated 2019)",
  "key": {"[1]": {"test_system": "human adrenal gland section expressing aldosterone-producing adenoma", "test": "In vitro autoradiography using human adrenal adenoma", "assay_type": "binding", "settings": "section of FIG. 17(b)", "how_it_was_run": "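Frozen 7-μm sections of human adrenal bearing aldosterone-producing adenoma were immersed 10 min in radioligand (5-33 kBq/mL) in PBS with 1% fatty-acid-free BSA, washed, then exposed to imaging plates for 16-20 h. Equal-area ROI PSL in adenoma (B2) versus normal cortex (B1) gave B2/B1, corrected for nuclide half-life, added activity and exposure time.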"}, "[2]": {"test": "In vivo kinetics experiment (radioactivity distribution)", "parameters": "species or system Wistar male rat", "settings": "rat i.v., mean ± SD", "how_it_was_run": "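Male Wistar rats (9 weeks) under isoflurane received approximately 1 to 3.7 MBq radiotracer in saline with 1 w/v % ascorbic acid by tail-vein injection. At 10, 30 and 60 min, rats were exsanguinated; blood, organs and remaining body weighed and counted, giving % ID/g and adrenal-to-tissue ratios.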"}, "[3]": {"test": "Plasma stability evaluation (TLC analysis)", "assay_type": "in vitro ADME", "settings": "37° C., 60 minutes, TLC analysis", "protocol": "Evaluation was made using a heparin-treated normal human plasma pool (Kohjin Bio Co., Ltd.). Compounds [^18F] 100, [^18F] 200, [^123I] 400, [^18F] 500, and [^123I] 601 to 610 obtained by the methods shown in Examples 2, 4, 7, 9, 11, 13, 15, 17, 19, 21, 23, 25, 27, and 29 were each added to the aforementioned human plasma (5 mL), and the obtained mixture was then incubated at 37° C. for 60 minutes. Thereafter, the mixture was centrifuged with addition of methanol, so that a deproteinization treatment was carried out. Thereafter, stability was evaluated by TLC analysis. As TLC analysis conditions, the TLC analysis conditions applied upon the above described synthesis of each compound were applied."}},
  "data": [
    {"molecule": "FCCn1c(-c2cncc(Cn3ccnc3)c2)nc2ccc([123I])cc21", "note": "[[^123I] 604, 1-(2-Fluoroethyl)-2-[5-{(imidazol-1-yl)methyl}pyridin-3-yl]-6-[^123I]iodobenzimidazole]", "values": [
      {"measurement": "B2/B1 accumulation ratio", "setting": "[1]", "result": 1.93},
      {"measurement": "B2 (PSL value, aldosterone-producing adenoma)", "setting": "[1]; site 71b", "result": 3493},
      {"measurement": "B1 (PSL value, normal adrenal cortex)", "setting": "[1]; site 72b", "result": 1813},
      {"measurement": "Adrenal gland/blood ratio of radioactivity accumulation", "setting": "[2]; 10 min after administration", "result": "75.41 ± 30.78"},
      {"measurement": "Adrenal gland/fat ratio of radioactivity accumulation", "setting": "[2]; 10 min after administration", "result": "92.23 ± 49.88"},
      {"measurement": "Adrenal gland/kidney ratio of radioactivity accumulation", "setting": "[2]; 10 min after administration", "result": "4.89 ± 2.15"},
      {"measurement": "Adrenal gland/liver ratio of radioactivity accumulation", "setting": "[2]; 10 min after administration", "result": "2.48 ± 1.00"},
      {"measurement": "Adrenal gland/muscle ratio of radioactivity accumulation", "setting": "[2]; 10 min after administration", "result": "67.00 ± 51.23"},
      {"measurement": "Adrenal gland/small intestine ratio of radioactivity accumulation", "setting": "[2]; 10 min after administration", "result": "7.85 ± 3.21"},
      {"measurement": "Radioactivity distribution Adrenal gland", "setting": "[2]; 10 min after administration", "result": "10.24 ± 4.48", "unit": "% ID/g"},
      {"measurement": "Radioactivity distribution Bladder (including urine)", "setting": "[2]; 10 min after administration", "result": "0.43 ± 0.13", "unit": "% ID/g"},
      {"measurement": "Radioactivity distribution Blood", "setting": "[2]; 10 min after administration", "result": "0.13 ± 0.01", "unit": "% ID/g"},
      {"measurement": "Radioactivity distribution Fat", "setting": "[2]; 10 min after administration", "result": "0.11 ± 0.01", "unit": "% ID/g"},
      {"measurement": "Radioactivity distribution Femur", "setting": "[2]; 10 min after administration", "result": "0.85 ± 0.40", "unit": "% ID/g"},
      {"measurement": "Radioactivity distribution Heart", "setting": "[2]; 10 min after administration", "result": "0.65 ± 0.09", "unit": "% ID/g"},
      {"measurement": "Radioactivity distribution Kidney", "setting": "[2]; 10 min after administration", "result": "2.09 ± 0.09", "unit": "% ID/g"},
      {"measurement": "Radioactivity distribution Large intestine", "setting": "[2]; 10 min after administration", "result": "0.11 ± 0.01", "unit": "% ID/g"},
      {"measurement": "Radioactivity distribution Liver", "setting": "[2]; 10 min after administration", "result": "4.09 ± 0.45", "unit": "% ID/g"},
      {"measurement": "Radioactivity distribution Lung", "setting": "[2]; 10 min after administration", "result": "0.98 ± 0.16", "unit": "% ID/g"},
      {"measurement": "Radioactivity distribution Muscle (lower limbs)", "setting": "[2]; 10 min after administration", "result": "0.18 ± 0.05", "unit": "% ID/g"},
      {"measurement": "Radioactivity distribution Remaining whole body", "setting": "[2]; 10 min after administration", "result": "0.24 ± 0.01", "unit": "% ID/g"},
      {"measurement": "Radioactivity distribution Small intestine", "setting": "[2]; 10 min after administration", "result": "1.29 ± 0.12", "unit": "% ID/g"},
      {"measurement": "Radioactivity distribution Spleen", "setting": "[2]; 10 min after administration", "result": "5.59 ± 1.78", "unit": "% ID/g"},
      {"measurement": "Radioactivity distribution Stomach", "setting": "[2]; 10 min after administration", "result": "0.66 ± 0.34", "unit": "% ID/g"},
      {"measurement": "Radioactivity distribution Testis", "setting": "[2]; 10 min after administration", "result": "0.04 ± 0.01", "unit": "% ID/g"},
      {"measurement": "Radioactivity distribution Whole brain", "setting": "[2]; 10 min after administration", "result": "0.01 ± 0.00", "unit": "% ID/g"},
      {"measurement": "Adrenal gland/blood ratio of radioactivity accumulation", "setting": "[2]; 30 min after administration", "result": "170.18 ± 126.19"},
      {"measurement": "Adrenal gland/fat ratio of radioactivity accumulation", "setting": "[2]; 30 min after administration", "result": "156.19 ± 135.29"},
      {"measurement": "Adrenal gland/kidney ratio of radioactivity accumulation", "setting": "[2]; 30 min after administration", "result": "9.69 ± 6.36"},
      {"measurement": "Adrenal gland/liver ratio of radioactivity accumulation", "setting": "[2]; 30 min after administration", "result": "8.55 ± 5.73"},
      {"measurement": "Adrenal gland/muscle ratio of radioactivity accumulation", "setting": "[2]; 30 min after administration", "result": "100.20 ± 67.99"},
      {"measurement": "Adrenal gland/small intestine ratio of radioactivity accumulation", "setting": "[2]; 30 min after administration", "result": "4.37 ± 1.61"},
      {"measurement": "Radioactivity distribution Adrenal gland", "setting": "[2]; 30 min after administration", "result": "15.46 ± 8.64", "unit": "% ID/g"},
      {"measurement": "Radioactivity distribution Bladder (including urine)", "setting": "[2]; 30 min after administration", "result": "1.13 ± 0.19", "unit": "% ID/g"},
      {"measurement": "Radioactivity distribution Blood", "setting": "[2]; 30 min after administration", "result": "0.10 ± 0.02", "unit": "% ID/g"},
      {"measurement": "Radioactivity distribution Fat", "setting": "[2]; 30 min after administration", "result": "0.12 ± 0.03", "unit": "% ID/g"},
      {"measurement": "Radioactivity distribution Femur", "setting": "[2]; 30 min after administration", "result": "0.83 ± 0.03", "unit": "% ID/g"},
      {"measurement": "Radioactivity distribution Heart", "setting": "[2]; 30 min after administration", "result": "0.64 ± 0.04", "unit": "% ID/g"},
      {"measurement": "Radioactivity distribution Kidney", "setting": "[2]; 30 min after administration", "result": "1.65 ± 0.27", "unit": "% ID/g"},
      {"measurement": "Radioactivity distribution Large intestine", "setting": "[2]; 30 min after administration", "result": "0.14 ± 0.02", "unit": "% ID/g"},
      {"measurement": "Radioactivity distribution Liver", "setting": "[2]; 30 min after administration", "result": "1.89 ± 0.21", "unit": "% ID/g"},
      {"measurement": "Radioactivity distribution Lung", "setting": "[2]; 30 min after administration", "result": "0.97 ± 0.10", "unit": "% ID/g"},
      {"measurement": "Radioactivity distribution Muscle (lower limbs)", "setting": "[2]; 30 min after administration", "result": "0.16 ± 0.02", "unit": "% ID/g"},
      {"measurement": "Radioactivity distribution Remaining whole body", "setting": "[2]; 30 min after administration", "result": "0.27 ± 0.01", "unit": "% ID/g"},
      {"measurement": "Radioactivity distribution Small intestine", "setting": "[2]; 30 min after administration", "result": "3.40 ± 0.80", "unit": "% ID/g"},
      {"measurement": "Radioactivity distribution Spleen", "setting": "[2]; 30 min after administration", "result": "6.71 ± 0.48", "unit": "% ID/g"},
      {"measurement": "Radioactivity distribution Stomach", "setting": "[2]; 30 min after administration", "result": "0.61 ± 0.14", "unit": "% ID/g"},
      {"measurement": "Radioactivity distribution Testis", "setting": "[2]; 30 min after administration", "result": "0.05 ± 0.01", "unit": "% ID/g"},
      {"measurement": "Radioactivity distribution Whole brain", "setting": "[2]; 30 min after administration", "result": "0.01 ± 0.00", "unit": "% ID/g"},
      {"measurement": "Adrenal gland/blood ratio of radioactivity accumulation", "setting": "[2]; 60 min after administration", "result": "329.57 ± 56.14"},
      {"measurement": "Adrenal gland/fat ratio of radioactivity accumulation", "setting": "[2]; 60 min after administration", "result": "161.46 ± 40.00"},
      {"measurement": "Adrenal gland/kidney ratio of radioactivity accumulation", "setting": "[2]; 60 min after administration", "result": "15.22 ± 1.37"},
      {"measurement": "Adrenal gland/liver ratio of radioactivity accumulation", "setting": "[2]; 60 min after administration", "result": "19.61 ± 2.12"},
      {"measurement": "Adrenal gland/muscle ratio of radioactivity accumulation", "setting": "[2]; 60 min after administration", "result": "130.19 ± 7.34"},
      {"measurement": "Adrenal gland/small intestine ratio of radioactivity accumulation", "setting": "[2]; 60 min after administration", "result": "5.02 ± 1.64"},
      {"measurement": "Radioactivity distribution Adrenal gland", "setting": "[2]; 60 min after administration", "result": "18.65 ± 1.67", "unit": "% ID/g"},
      {"measurement": "Radioactivity distribution Bladder (including urine)", "setting": "[2]; 60 min after administration", "result": "3.04 ± 1.32", "unit": "% ID/g"},
      {"measurement": "Radioactivity distribution Blood", "setting": "[2]; 60 min after administration", "result": "0.06 ± 0.01", "unit": "% ID/g"},
      {"measurement": "Radioactivity distribution Fat", "setting": "[2]; 60 min after administration", "result": "0.12 ± 0.04", "unit": "% ID/g"},
      {"measurement": "Radioactivity distribution Femur", "setting": "[2]; 60 min after administration", "result": "0.90 ± 0.10", "unit": "% ID/g"},
      {"measurement": "Radioactivity distribution Heart", "setting": "[2]; 60 min after administration", "result": "0.56 ± 0.01", "unit": "% ID/g"},
      {"measurement": "Radioactivity distribution Kidney", "setting": "[2]; 60 min after administration", "result": "1.23 ± 0.01", "unit": "% ID/g"},
      {"measurement": "Radioactivity distribution Large intestine", "setting": "[2]; 60 min after administration", "result": "0.55 ± 0.52", "unit": "% ID/g"},
      {"measurement": "Radioactivity distribution Liver", "setting": "[2]; 60 min after administration", "result": "0.96 ± 0.10", "unit": "% ID/g"},
      {"measurement": "Radioactivity distribution Lung", "setting": "[2]; 60 min after administration", "result": "0.78 ± 0.03", "unit": "% ID/g"},
      {"measurement": "Radioactivity distribution Muscle (lower limbs)", "setting": "[2]; 60 min after administration", "result": "0.14 ± 0.01", "unit": "% ID/g"},
      {"measurement": "Radioactivity distribution Remaining whole body", "setting": "[2]; 60 min after administration", "result": "0.28 ± 0.04", "unit": "% ID/g"},
      {"measurement": "Radioactivity distribution Small intestine", "setting": "[2]; 60 min after administration", "result": "3.98 ± 1.32", "unit": "% ID/g"},
      {"measurement": "Radioactivity distribution Spleen", "setting": "[2]; 60 min after administration", "result": "5.62 ± 1.11", "unit": "% ID/g"},
      {"measurement": "Radioactivity distribution Stomach", "setting": "[2]; 60 min after administration", "result": "0.89 ± 0.21", "unit": "% ID/g"},
      {"measurement": "Radioactivity distribution Testis", "setting": "[2]; 60 min after administration", "result": "0.05 ± 0.01", "unit": "% ID/g"},
      {"measurement": "Radioactivity distribution Whole brain", "setting": "[2]; 60 min after administration", "result": "0.01 ± 0.00", "unit": "% ID/g"},
      {"measurement": "Radiochemical purity after incubation in human plasma", "setting": "[3]", "result": 85, "unit": "%"}
    ]}
  ]
}
